# Read-outs that look alike come from different tables or passages of the source.
# Tests used:
# human T cells [1] = experiment: ConA-induced activation and expansion of human T cells (high-throughput screen); type: cell-based; conditions: human T cells activated with ConA for 7 days, N/A = ambiguous curve fits or EC50 greater than the highest concentration tested (25 μM)
# Protocol: T cell stimulation—For human T cell proliferation assays, peripheral blood lymphocytes were obtained by leukapheresis/elutriation and Miltenyi bead-purified and K562 cells expressing human CD32 were generated as previously described^41. […] PBMCs were labeled with CELLTRACE Violet stain (Invitrogen) according to the manufacturer's instructions and cocultured with loaded K32 cells at a 10:1 T cells:K32 ratio or activated with ConA (2 μg/ml, Sigma). Proliferation of stimulated T cells was determined 7 days later by FACS and Division Index was calculated using FlowJo software.
# (§1) EC50 values were calculated from normalized percent inhibition data using non-linear curve fitting in PRISM software.
# [2] = test system: A2780 ovarian cancer cells; experiment: Molecular screening of compounds on A2780 cell proliferation (resazurin fluorescence); type: cell-based, human; conditions: A2780 cells cultured 3 days, N/A = ambiguous curve fits or EC50 greater than the highest concentration tested (25 μM), read-out: EC5 - A2780 ovarian cancer cells
# Protocol: Cell proliferation assays—Cells were plated in 96-well plates. Compounds were added the next morning, and cell proliferation was measured 48 hrs later with the […] 96 MTS assay (Promega) according to the manufacturer's instructions. Molecular screening of compounds on A2780 cells was performed by adding compounds the morning after plating in 384-well plates and measuring proliferation 72 hrs later with resazurin fluorescence. Normalized percent inhibition (NPI) was calculated with respect to fluorescence values obtained with DMSO negative control and doxorubicin (5 μM) positive control as NPI=100%*(DMSO−compound)/(DMSO−doxorubicin). TCR ligation of human CD8 T cells
# as §1
# human T cells [3] = experiment: aAPC (anti-CD3/anti-CD28)-induced human T cell proliferation, CELLTRACE; type: cell-based; conditions: 7 days
# Protocol: Four plots show proliferation of CD8 cells after 7 days is shown. […] Proliferation of CD8 cells after 7 days is shown. T cell stimulation-For human T cell proliferation assays, peripheral blood lymphocytes were obtained by leukapheresis/elutriation and Miltenyi bead-purified and K562 cells expressing human CD32 were generated as previously described^41. […] were γ-irradiated (100 Gy) and loaded with anti-CD3 (500 ng/ml, clone OKT3; eBioscience) plus anti-CD28 (500 ng/ml, clone 15E8; EMD Millipore) antibodies at room temperature for 10 minutes. PBMCs were labeled with CELLTRACE Violet stain (Invitrogen) according to the manufacturer's instructions and cocultured with loaded […] cells at a 10:1 T cells:[…] ratio or activated with ConA (2 μg/ml, Sigma). Proliferation of stimulated T cells was determined 7 days later by FACS and Division Index was calculated using FlowJo software.
# human T cells [4] = experiment: Cytokine rescue of human T cell proliferation from MEK inhibition; type: cell-based; conditions: GDC0973 or trametinib
# Protocol: Proliferation of CD8 T cells after 7 days is shown.
# FIG. 2D is a graph showing that human PBMCs were activated as in FIG. 2B with the indicated compounds, BKM120=2 μM.
# Reported are percentages of cells that proliferated with GDC0973 relative to vehicle treatment with the same cytokines after 7 days. Stains are not depicted.
# T cell stimulation—For human T cell proliferation assays, peripheral blood lymphocytes were obtained by leukapheresis/elutriation and Miltenyi bead-purified and K562 cells expressing human CD32 were generated as previously described^41. K32 were γ-irradiated (100 Gy) and loaded with anti-CD3 (500 ng/ml, clone OKT3; eBioscience) plus anti-CD28 (500 ng/ml, clone 15E8; EMD Millipore) antibodies at room temperature for 10 minutes. PBMCs were labeled with CELLTRACE Violet stain (Invitrogen) according to the manufacturer's instructions and cocultured with loaded K32 cells at a 10:1 T cells:K32 ratio or activated with ConA (2 μg/ml, Sigma). Proliferation of stimulated T cells was determined 7 days later by FACS and Division Index was calculated using FlowJo software.
"EC50 (human T cells [1]; T-cell, 168 h) [nM]","EC50 ([2]; Homo sapiens, 72 h) [nM]",Molecule,further results
422,–,"CN1CCN(CCOc2cc(OC3CCOCC3)c3c(Nc4c(Cl)ccc5c4OCO5)ncnc3c2)CC1 [AZD0530 (saracatinib), saracatinib]",–
311,5880,COc1cccc2cc(-c3nc([C@H]4CC[C@H](C(=O)O)CC4)n4ncnc(N)c34)[nH]c12 [OSI027],–
–,3610,Cc1[nH]c2ccccc2c1CCNCc1ccc(/C=C/C(=O)NO)cc1 [LBH589],–
1280,11400,"CC(C)(C)c1nc(-c2cccc(NS(=O)(=O)c3c(F)cccc3F)c2F)c(-c2ccnc(N)n2)s1 [GSK436 (dabrafenib), dabrafenib]",–
962,–,Cc1cc([C@@H](C)Nc2ccccc2C(=O)O)c2nc(N3CCOCC3)cc(=O)n2c1 [AZD6482],–
–,–,COc1ncc(-c2ccc3nccc(-c4ccnnc4)c3c2)cc1NS(=O)(=O)c1ccc(F)cc1F [GSK2126458],EC50 (human T cells [1]): 0.237 nM; EC50 [2]: 155 nM
22.2,7640,O=C(Nc1ccc2[nH]nc(-c3ccncc3)c2c1)[C@@H]1CCN(CC(=O)N2CCN(c3ccc(-c4ncccn4)cc3)CC2)C1 [SCH772984],–
92.1,–,CCN(CCCOc1ccc2c(Nc3cc(CC(=O)Nc4cccc(F)c4)n[nH]3)ncnc2c1)CCOP(=O)(O)O [AZD1152],–
4.35,9040,O=C(c1ccc(F)c(F)c1Nc1ccc(I)cc1F)N1CC(O)([C@@H]2CCCCN2)C1 [GDC0973],proliferation of human T cells in response to aAPC coated with agonistic CD3 and CD28 antibodies (human T cells [3]): restricted the proliferation
–,5210,CC(=O)c1c(C)c2cnc(Nc3ccc(N4CCNCC4)cn3)nc2n(C2CCCC2)c1=O [PD0332991],–
9030,24400,Cc1cc(-c2ncc(CC(=O)Nc3ccc(-c4cnccn4)cn3)cc2C)ccn1 [LGK974],–
2690,17200,O=c1cc(N2CCOCC2)oc2c(-c3ccccc3)cccc12 [LY294002],–
24500,–,"Cn1cnc2c(F)c(Nc3ccc(Br)cc3Cl)c(C(=O)NOCCO)cc21 [AZD6244 (selumetinib), selumetinib]",–
–,–,COc1ccc(C2=N[C@@H](c3ccc(Cl)cc3)[C@@H](c3ccc(Cl)cc3)N2C(=O)N2CCNC(=O)C2)c(OC(C)C)c1 [nutlin-3a],EC50 (human T cells [1]): 1130 nM; EC50 [2]: 16800 nM
239,11500,Nc1cc(C(F)(F)F)c(-c2cc(N3CCOCC3)nc(N3CCOCC3)n2)cn1 [BKM120],proliferation of human T cells in response to aAPC coated with agonistic CD3 and CD28 antibodies (human T cells [3]): restricted the proliferation
2930,–,CN(C)C(=O)c1cc2cnc(Nc3ccc(N4CCNCC4)cn3)nc2n1C1CCCC1 [LEE011],–
128,5630,Cn1c(Nc2ccc(C(F)(F)F)cc2)nc2cc(Oc3ccnc(-c4ncc(C(F)(F)F)[nH]4)c3)ccc21 [RAF265],–

"EC50 (human T cells [1]; T-cell, 168 h) [nM]","EC50 ([2]; Homo sapiens, 72 h) [nM]",Molecule,further results
56.7,1110,COC1=CC(c2cc3ccccc3[nH]2)=N/C1=C\c1[nH]c(C)cc1C [obatoclax],–
–,1540,CS(=O)(=O)N1CCN(Cc2cc3nc(-c4cccc5[nH]ncc45)nc(N4CCOCC4)c3s2)CC1 [GDC0941],–
2480,19100,Cc1cn(-c2cc(NC(=O)c3ccc(C)c(Nc4nccc(-c5cccnc5)n4)c3)cc(C(F)(F)F)c2)cn1 [AMN107],–
4.03,–,CO[C@H]1C[C@@H]2CC[C@@H](C)[C@@](O)(O2)C(=O)C(=O)N2CCCC[C@H]2C(=O)O[C@H]([C@H](C)C[C@@H]2CC[C@@H](O)[C@H](OC)C2)CC(=O)[C@H](C)/C=C(\C)[C@@H](O)[C@@H](OC)C(=O)[C@H](C)C[C@H](C)/C=C/C=C/C=C/1C [Rapamycin],–
–,–,Cn1ncc(Cl)c1-c1cc(C(=O)N[C@H](CN)Cc2ccc(F)c(F)c2)oc1Cl [GSK2141795],EC50 (human T cells [1]): 96 nM; EC50 [2]: 2350 nM
5260,–,"CCCS(=O)(=O)Nc1ccc(F)c(C(=O)c2c[nH]c3ncc(-c4ccc(Cl)cc4)cc23)c1F [PLX4032 (vemurafenib), vemurafenib]",–
–,–,CCc1cc(Nc2nccc(-c3c(-c4ccc(OC)c(C(=O)Nc5c(F)cccc5F)c4)nc4ccccn34)n2)c(OC)cc1N1CCC(N2CCN(S(C)(=O)=O)CC2)CC1 [GSK1904529],EC50 (human T cells [1]): 13900 nM
72.9,5830,O=C(Nc1cccc(Cl)c1)Nc1ncc(CCNc2ncnc3ccsc23)s1 [SNS314],–
86.8,–,COc1cc(Nc2ncc3c(n2)-c2ccc(Cl)cc2C(c2c(F)cccc2OC)=NC3)ccc1C(=O)O [MLN8237],–
–,–,CC(C)(C)c1cc(C=C(C#N)C#N)cc(Br)c1O [AG1024],EC50 (human T cells [1]): 9830 nM; EC50 [2]: 21300 nM
3570,8480,Cc1c(C(=O)Nc2ccc(N3C[C@@H](C)O[C@@H](C)C3)nc2)cccc1-c1ccc(OC(F)(F)F)cc1 [LDE225],–
446,8750,NC1(c2ccc(-c3nc4ccn5c(=O)[nH]nc5c4cc3-c3ccccc3)cc2)CCC1 [MK2206],–
–,–,C=CCN(/C=C1/C(=O)O[C@H](COC)[C@@]2(C)C1=C(O)C(=O)C1=C2[C@H](OC(C)=O)C[C@]2(C)C(=O)CC[C@@H]12)CC=C [PX-866],EC50 (human T cells [1]): 1200 nM
–,–,IL-21: cytokine tested for rescue of T cell expansion from MEK inhibition,rescue of T cell proliferation in the presence of the MEK inhibitors (human T cells [4]): no effect
18.4,257,CC(C)n1nc(-c2ccc3oc(N)nc3c2)c2c(N)ncnc21 [INK128],–
–,–,"IL-7: recombinant mouse IL-7 (Peprotech) (protein, UniProt P10168 26-154, looked up) Interleukin-7: ECHIKDKEGKAYESVLMISIDELDKMTGTDSNCPNNEPNFFRKHVCDDTKEAAFLNRAARKLKQFLKMNISEEFNVHLLTVSQGTQTLVNCTSKEEKNVKEQKKNDACFLKRLLREIKTCWNKILKGSI",rescue of T cell proliferation in the presence of the MEK inhibitors (human T cells [4]): able to rescue T cell proliferation
–,–,"IL-27: cytokine tested for rescue of T cell expansion from MEK inhibition (protein, UniProt Q8NEV9 29-243; Q14213 21-229, looked up) Interleukin-27 subunit alpha: FPRPPGRPQLSLQELRREFTVSLHLARKLLSEVRGQAHRFAESHLPGVNLYLLPLGEQLPDVSLTFQAWRRLSDPERLCFISTTLQPFHALLGGLGTQGRWTNMERMQLWAMRLDLRDLQRHLRFQVLAAGFNLPEEEEEEEEEEEEERKGLLPGALGSALQGPAQVSWPQLLSTYRLLHSLELVLSRAVRELLLLSKAGHSVWPLGFPTLSPQP Interleukin-27 subunit beta: RKGPPAALTLPRVQCRASRYPIAVDCSWTLPPAPNSTSPVSFIATYRLGMAARGHSWPCLQQTPTSTSCTITDVQLFSMAPYVLNVTAVHPWGSSSSFVPFITEHIIKPDPPEGVRLSPLAERQLQVQWEPPGSWPFPEIFSLKYWIRYKRQGAARFHRVGPIEATSFILRAVRPRARYYVQVAAQDLTDYGELSDWSLPATATMSLGK",rescue of T cell proliferation in the presence of the MEK inhibitors (human T cells [4]): no effect
